{"source": "patent US10821091B2", "about": "“Retinoid compositions and methods of increasing immune cell-mediated killing of IDH mutant cancer cells” (UNIVERSITY OF PITTSBURGH—OF THE COMMONWEALTH SYSTEM OF …, priority 2017, dated 2020)", "key": {"[1]": {"conditions": "mouse, in vivo", "protocol": "Mice. 6-8 week old Balb/c nude mice (CAnN.Cg-Foxn1nu/Crl) were purchased from Charles River Laboratories. Mice were injected with 10^6 IDH WT or mutant primary glioma cells sub-cutaneously in the right flank. When the tumors were about 25 mm^2, ATRA treatment was started. 10 mg/Kg ATRA was administered to mice intra-peritoneally (i.p.) every alternate day until termination of the experiment. DMSO-treated mice were used as controls. The mice were monitored for signs of drug toxicity such as weight-loss, lethargy, skin lesions and diarrhea. The tumors were measured every 3 days, and the mice were sacrificed when the tumors were about 400 mm^2. For NK depletion experiments, 6-week old B6 nude mice (B6.Cg-Foxn1nu/J) were purchased from The Jackson Laboratory. NK depletion was performed by injecting mice with 200 μg of anti-NK1.1 antibody (Biolegend) i.p. on the day ATRA treatment was started. Mice injected with 200 μg of an isotype antibody were used as controls. Mice were bled and evaluated for circulating NKs by flow cytometry.\nRetinoic acid has been used as a chemotherapeutic agent in a wide variety of cancers, in pre-clinical as well as clinical applications. 13-cis-RA is the most common form of RA used in clinics, and is effective in a variety of neoplasms. Therefore, the efficacy of 13-cis RA was compared with ATRA and Bexarotene (a synthetic retinoic acid analogue) in IDH mutant gliomas."}, "[2]": {"test_system": "RBP1-transduced IDH mutant cells", "experiment": "RBP1 overexpression with retinol: NK cytotoxicity and gene expression", "assay_type": "cell-based, human", "protocol": "For RBP1 overexpression studies, IDH mutant glioma cells were transduced with RBP1 expressing lentiviral vectors (Origene Inc) for 3 hours. The cells were maintained in CM containing 10 μg/ml Puromycin to select for lentivirus-transduced cells. Cells transduced with a mock lentiviral vector were used as controls.\nNK cytotoxicity assay. The flow cytometric CFSE/7-AAD cytotoxicity assay was performed as previously described with slight modifications. Astrocytes or Glioma cells (5×10^5) were labeled with 500 nM CFSE (from a 1 mM stock solution in dimethyl sulfoxide [Sigma] stored at −20° C.) in PBS for 15 min at 37° C. The cells were then washed twice in complete medium and used immediately for the cytotoxicity assay. The CFSE-labeled target cells (25,000 cells) were used at E (effector):T (target) ratios of 1:10. After 6 h incubation, the cells were stained with 0.25 μg/ml of 7-AAD and analyzed by flow cytometry.\nQuantitative Real time RT-PCR. 5×10^5 IDH mutant and WT astrocytes, as well as patient glioma cells were lyzed in Trizol and RNA was extracted from the cells using the Chloroform extraction method. cDNA was transcribed from the RNA using iScript cDNA synthesis kit (BioRad). Real-time PCR was performed on an CFX96 Touch™ Real-Time PCR Detection System (Bio-Rad) equipped with a 96-well reaction plate. Briefly, 2 μL cDNA was added to 5 μL of the 2×SYBR Green PCR mastermix (Thermo Scientific), 800 nM of each primer, and water was added to 10 μL. The thermal denaturation protocol was run at the end of the PCR to determine the number of products that were present in the reaction. Reactions were typically run in triplicates. The cycle number at which the reaction crossed an arbitrarily-placed threshold (CT) was determined for each gene and the relative amount of each gene to 18 S rRNA was described using the equation 2^−ΔCT where ΔCT=(CTtargetRNA−CT18S rRNA).\nRBP1 overexpression reverses immune evasion in IDH mutant gliomas. […] Cells were analyzed for NK cytotoxicity and gene expression of RA pathway genes. […]"}, "[3]": {"conditions": "retinol added to RBP1-transduced IDH mutant cells, to wild type expression levels"}}}
{"smiles": "CC1=C(/C=C/C(C)=C/C=C/C(C)=C\\C(=O)O)C(C)(C)CCC1", "note": "[13-cis RA, 13-cis retinoic acid]", "values": [{"measurement": "toxicity in treated mice (weight loss and wasting)", "setting": "[1]", "result": "Higher levels of toxicity"}]}
{"smiles": "C=C(c1ccc(C(=O)O)cc1)c1cc2c(cc1C)C(C)(C)CCC2(C)C", "note": "[Bexarotene]", "values": [{"measurement": "toxicity in treated mice (weight loss and wasting)", "setting": "[1]", "result": "Higher levels of toxicity"}]}
{"smiles": "CC1=C(/C=C/C(C)=C/C=C/C(C)=C/CO)C(C)(C)CCC1", "note": "[retinol]", "values": [{"measurement": "recognition and killing by NK cells", "setting": "[2]; 10 μM retinol in medium of RBP1-transduced IDH mutant cells", "result": "significantly increased recognition and killing by NK cells"}, {"measurement": "expression of NKG2D ligands (ULBP1, ULBP3)", "setting": "[2]; [3]", "result": "restored expression"}, {"measurement": "expression of RA pathway genes", "setting": "[2]; [3]", "result": "restored expression"}]}
